In US20230091225A1, “Bifunctional chimeric heterocyclic compounds for targeted degradation of androgen receptors and use thereof” (HINOVA PHARMACEUTICALS INC., priority 2019, published 2023):
Where two headings read alike, the source gives them in different places.

Molecular target: T1, androgen receptor (AR) (Homo sapiens, UniProt P10275)
T1 sequence (P10275 1-920): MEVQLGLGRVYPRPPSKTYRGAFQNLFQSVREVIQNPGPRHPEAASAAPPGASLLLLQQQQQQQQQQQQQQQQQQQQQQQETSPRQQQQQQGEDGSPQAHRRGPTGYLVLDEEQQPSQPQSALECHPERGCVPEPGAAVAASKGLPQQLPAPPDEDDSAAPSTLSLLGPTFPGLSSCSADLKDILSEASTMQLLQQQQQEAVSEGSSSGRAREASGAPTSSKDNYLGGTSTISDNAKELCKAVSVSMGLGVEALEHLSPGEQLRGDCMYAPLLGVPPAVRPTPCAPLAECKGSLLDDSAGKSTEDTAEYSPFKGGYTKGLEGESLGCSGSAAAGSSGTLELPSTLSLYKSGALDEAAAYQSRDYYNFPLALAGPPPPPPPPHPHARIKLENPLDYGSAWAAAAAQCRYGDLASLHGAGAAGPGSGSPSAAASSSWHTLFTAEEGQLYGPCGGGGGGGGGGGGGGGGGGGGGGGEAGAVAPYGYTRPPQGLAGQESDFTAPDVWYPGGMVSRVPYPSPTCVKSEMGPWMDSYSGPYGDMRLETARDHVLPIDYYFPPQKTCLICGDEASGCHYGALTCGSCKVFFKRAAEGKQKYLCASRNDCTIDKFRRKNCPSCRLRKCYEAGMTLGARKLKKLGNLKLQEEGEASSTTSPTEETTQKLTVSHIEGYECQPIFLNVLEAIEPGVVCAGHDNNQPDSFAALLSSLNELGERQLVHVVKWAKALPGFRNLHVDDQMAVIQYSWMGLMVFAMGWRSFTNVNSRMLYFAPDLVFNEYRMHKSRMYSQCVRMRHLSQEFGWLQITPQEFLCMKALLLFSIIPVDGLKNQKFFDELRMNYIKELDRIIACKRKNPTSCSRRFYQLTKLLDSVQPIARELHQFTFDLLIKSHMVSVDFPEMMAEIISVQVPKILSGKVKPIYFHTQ
Test: Degradation of androgen receptor (AR) protein in VCaP cells by ELISA
Assay type: cell-based
Conditions: for Dmax: VCaP

[1] = AR degradation, VCaP cells, 16 h, ELISA, Table 3-1
[2] = AR degradation, VCaP cells, 16 h, ELISA, Table 3-1, read-out: DC50
[3] = AR degradation, VCaP cells, 16 h, ELISA, Table 3-1, read-out: Dmax (%)
[4] = AR degradation, VCaP cells, 16 h, ELISA, Table 3-2, read-out: DC50
[5] = AR degradation, VCaP cells, 16 h, ELISA, Table 3-2, read-out: Dmax (%)

Row | DC50 [2] [nM] | Dmax [3] [%] | Compound | also measured
1 | 10 to 100 | 40 to 60 | N#Cc1ccc(O[C@H]2CC[C@H](NC(=O)c3cnc(N4CC5CC4CN5C[C@H]4[C@@H]5CN(c6cc7c(cc6F)C(=O)N(C6CCC(=O)NC6=O)C7=O)C[C@@H]54)cn3)CC2)cc1Cl (some centres unmarked) [Compound 238] | 
2 |  |  | N#Cc1ccc(O[C@H]2CC[C@H](NC(=O)c3ccc(N4CCC(CN5CCC6(CC5)CN(c5ccc7c(c5)C(=O)N(C5CCC(=O)NC5=O)C7=O)C6)CC4)nn3)CC2)cc1 (some centres unmarked) [Compound 131, N-((1r,4r)-4-(4-cyanophenoxy)cyclohexyl)-6-(4-((2-(2-(2,6-dioxopiperidin-3-yl)-1,3-dioxoisoindolin-5-yl)-2,7-diazaspiro[3.5]nonan-7-yl)methyl)piperidin-1-yl)pyridazine-3-carboxamide] | DC50: 10 to 100 nM; Dmax: 60 to 80%
3 | < 10 | > 80 | N#Cc1ccc(O[C@H]2CC[C@H](NC(=O)c3ccc(N4CCC(CN5CCC6(CC5)CN(c5cc7c(cc5F)C(=O)N(C5CCC(=O)NC5=O)C7=O)C6)CC4)cc3)CC2)cc1Cl (some centres unmarked) [Compound 191, N-((1r,4r)-4-(3-chloro-4-cyanophenoxy)cyclohexyl)-4-(4-((2-(2-(2,6-dioxopiperidin-3-yl)-6-fluoro-1,3-dioxoisoindolin-5-yl)-2,7-diazaspiro[3.5]nonan-7-yl)methyl)piperidin-1-yl)benzamide] | 
4 | < 10 | > 80 | N#Cc1ccc(O[C@H]2CC[C@H](NC(=O)c3cnc(N4CCC(CN5CC6(CCN(c7cc8c(cc7F)C(=O)N(C7CCC(=O)NC7=O)C8=O)C6)C5)CC4)cn3)CC2)cc1Cl (some centres unmarked) [Compound 188, N-((1r,4r)-4-(3-chloro-4-cyanophenoxy)cyclohexyl)-5-(4-((6-(2-(2,6-dioxopiperidin-3-yl)-6-fluoro-1,3-dioxoisoindolin-5-yl)-2,6-diazaspiro[3.4]octan-2-yl)methyl)piperidin-1-yl)pyrazine-2-carboxamide] | 
5 | 10 to 100 | 60 to 80 | CC1(C)[C@H](Oc2ccc(C#N)c(Cl)c2)C(C)(C)[C@H]1N1Cc2nc(C#CC3CC(N4CC5CN(c6cc7c(cc6F)C(=O)N(C6CCC(=O)NC6=O)C7=O)CC5C4)C3)ccc2C1=O (some centres unmarked) [Compound 360] | 
6 |  |  | N#Cc1ccc(O[C@H]2CC[C@H](NC(=O)c3cnc(N4CCC(CN5CCC6(CC5)CN(c5cc7c(cc5F)C(=O)N(C5CCC(=O)NC5=O)C7)C6)CC4)nn3)CC2)cc1Cl (some centres unmarked) [Compound 417] | DC50 [4]: < 10 nM; Dmax [5]: > 80%
7 | < 10 | > 80 | C[C@H]1CN(c2ccc(C(=O)N[C@H]3CC[C@H](Oc4ccc(C#N)c(Cl)c4)CC3)nn2)CCN1C[C@H]1[C@@H]2CN(c3cc4c(cc3F)C(=O)N(C3CCC(=O)NC3=O)C4=O)C[C@@H]21 (some centres unmarked) [Compound 168] | 
8 | 10 to 100 | > 80 | CC1(C)[C@H](Oc2ccc(C#N)c(Cl)c2)C(C)(C)[C@H]1N1Cc2nc(C#C[C@H]3CC[C@H](N4CCN(c5ccc6c(c5)C(=O)N(C5CCC(=O)NC5=O)C6=O)CC4)CC3)cnc2C1=O (some centres unmarked) [Compound 381] | 
9 |  |  | [2H]C([2H])([2H])N(C(=O)c1ccc(N2CCC(CN3CCN(c4cc5c(cc4F)C(=O)N(C4CCC(=O)NC4=O)C5=O)CC3)CC2)nn1)[C@H]1CC[C@H](Oc2ccc(C#N)c(Cl)c2)CC1 (some centres unmarked) [Compound 133, N-((1r,4r)-4-(3-chloro-4-cyanophenoxy)cyclohexyl)-6-(4-((4-(2-(2,6-dioxopiperidin-3-yl)-6-fluoro-1,3-dioxoisoindolin-5-yl)piperazin-1-yl)methyl)piperidin-1-yl)-N-deuteromethyl-pyridazine-3-amide] | DC50: > 300 nM; Dmax: < 40%
10 | 10 to 100 | > 80 | N#Cc1ccc(O[C@H]2CC[C@H](NC(=O)c3cnc(N4CCN(C5CC6(CCN(c7cc8c(cc7F)C(=O)N(C7CCC(=O)NC7=O)C8=O)CC6)C5)CC4)cn3)CC2)cc1Cl (some centres unmarked) [Compound 277, N-((1r,4r)-4-(3-chloro-4-cyanophenoxy)cyclohexyl)-5-(4-(7-(2-(2,6-dioxopiperidin-3-yl)-6-fluoro-1,3-dioxoisoindolin-5-yl)-7-azaspiro[3.5]nonan-2-yl)piperazin-1-yl)pyrazine-2-carboxamide] | 
11 | < 10 | > 80 | N#Cc1ccc(O[C@H]2CC[C@H](NC(=O)c3ccc(N4CCC(CN5CCC6(CC5)CN(c5ccc7c(=O)n(C8CCC(=O)NC8=O)cnc7c5)C6)CC4)nn3)CC2)cc1Cl (some centres unmarked) [Compound 247] | 
12 | < 10 | > 80 | N#Cc1ccc(O[C@H]2CC[C@H](NC(=O)c3cnc(N4CCC(N5CCC6(CC5)CN(c5cc7c(cc5F)C(=O)N(C5CCC(=O)NC5=O)C7=O)C6)CC4)cn3)CC2)cc1Cl (some centres unmarked) [Compound 287, N-((1r,4r)-4-(3-chloro-4-cyanophenoxy)cyclohexyl)-5-(4-(2-(2-(2,6-dioxopiperidin-3-yl)-6-fluoro-1,3-dioxoisoindolin-5-yl)-2,7-diazaspiro[3.5]nonan-7-yl)piperidin-1-yl)pyrazine-2-carboxamide] | 
13 |  |  | N-((1r,4r)-4-(3-chloro-4-cyanophenoxy)cyclohexyl)-6-(4-((6-(2-(2,6-dioxopiperidin-3-yl)-6-fluoro-1,3-dioxoisoindolin-5-yl)-2,6-diazaspiro[3.3]heptan-2-yl)methyl)piperidin-1-yl)pyrazine-2-amide [Compound 123] | Dmax (%): ++++ (key: A: >80%; B: 79%-50%; C: 49%-25%; D: <25%); DC50 (read-out: DC50): < 10 nM
14 |  |  | CC1(C)[C@H](Oc2ccc(C#N)c(Cl)c2)C(C)(C)[C@H]1N1Cc2nc(C#C[C@H]3C[C@H](N4CCN(c5cc(=O)n(C6CCC(=O)NC6=O)cn5)CC4)C3)ccc2C1=O (some centres unmarked) [Compound 395] | DC50 [4]: 100 to 300 nM; Dmax [5]: 40 to 60%

Row | Compound | DC50 [2] [nM] | Dmax [3] [%] | also measured
15 | CC1(C)[C@H](Oc2ccc(C#N)c(Cl)c2)C(C)(C)[C@H]1N1Cc2nc(C#CC3CCC(N4CC5(CCN(c6cc7c(cc6F)C(=O)N(C6CCC(=O)NC6=O)C7=O)CC5)C4)CC3)ccc2C1=O (some centres unmarked) [Compound 378, 2-Chloro-4-((1 r,3r)-3-(2-((4-(7-(2-(2,6-dioxopiperidin-3-yl)-6-fluoro-1,3-dioxoisoindolin-5-yl)-2,7-diazaspiro[3.5]nonan-2-yl)cyclohexyl)ethynyl)-5-oxo-5,7-dihydro-pyrrolo[3,4-b]pyridin-6-yl)-2,2,4,4-tetramethylcyclobutoxy) benzonitrile] | > 300 |  | Dmax (%) [1]: + (<40%)
16 | N#Cc1ccc(O[C@H]2CC[C@H](NC(=O)c3ccc(N4CCN(C[C@@H]5[C@H]6CN(c7cc8c(cc7F)C(=O)N(C7CCC(=O)NC7=O)C8=O)C[C@@H]56)CC4)nn3)CC2)cc1Br (stereo partly drawn) [Compound 126, N-((1r,4r)-4-(3-bromo-4-cyanophenoxy)cyclohexyl)-6-(4-(((1R,5S,6s)-3-(2-(2,6-dioxopiperidin-3-yl)-6-fluoro-1,3-dioxoisoindolin-5-yl)-3-azabicyclo[3.1.0]hexan-6-yl)methyl)piperazin-1-yl)pyridazine-3-amide] | < 10 |  | Dmax: > 80%
17 | CC1(C)[C@H](Oc2ccc(C#N)c(Cl)c2)C(C)(C)[C@H]1N1Cc2nc(C#CC3CCC(N4CC5(CCN(c6ccc7c(c6)C(=O)N(C6CCC(=O)NC6=O)C7=O)CC5)C4)CC3)ccc2C1=O (some centres unmarked) [Compound 376, 2-Chloro-4-((1r,3r)-3-(2-((4-(7-(2-(2,6-dioxopiperidin-3-yl)-1,3-dioxoisoindolin-5-yl)-2,7-diazaspiro[3.5]nonan-2-yl)cyclohexyl)ethynyl)-S-oxo-5,7-dihydro-pyrrolo[3,4-b]pyridin-6-yl)-2,2,4,4-tetramethylcyclobutoxy) benzonitrile] | > 300 |  | Dmax (%) [1]: ++ (60%-40%)
18 | CC1(C)[C@H](Oc2ccc(C#N)c(Cl)c2)C(C)(C)[C@H]1N1Cc2nc(C#CC3CCC(N4CC5(CCN(c6ccc7c(c6)C(=O)N(C6CCC(=O)NC6=O)C7=O)C5)C4)CC3)ccc2C1=O (some centres unmarked) [Compound 369, 2-Chloro-4-((1r,3r)-3-(2-((4-(6-(2-(2,6-dioxopiperidin-3-yl)-1,3-dioxoisoindolin-5-yl)-2,6-diazaspiro[3.4]octane-2-yl)cyclohexyl)ethynyl)-5-oxo-5,7-dihydro-pyrrolo[3,4-b]pyridin-6-yl)-2,2,4,4-tetramethylcyclobutoxy) benzonitrile] | 10 to 100 |  | Dmax (%) [1]: +++ (80%-60%)
19 | CC1(C)[C@H](Oc2ccc(C#N)c(Cl)c2)C(C)(C)[C@H]1N1Cc2nc(C#CC3CCC(N4CC5CC4CN5c4ccc5c(c4)C(=O)N(C4CCC(=O)NC4=O)C5=O)CC3)ccc2C1=O (single isomer, unassigned) [Compound 352, 2-Chloro-4-((1r,3r)-3-(2-((4-(5-(2-(2,6-dioxopiperidin-3-yl)-1,3-dioxoisoindolin-5-yl)-2,5-diazabicyclo[2.2.1]heptan-2-yl)cyclohexyl)ethynyl)-5-oxo-5,7-dihydro-6H-pyrrolo[3,4-b]pyridin-6-yl)-2,2,4,4-tetramethylcyclobutoxy) benzonitrile] | > 300 | 40 to 60 | 
